Values after ≈ are worked out from the molar mass of the structure shown.
Tests used:
Water-solubility = format: physicochemical
[1] = system: Streptococcus salivarius (ATCC7752); experiment: Antibacterial activity; format: cell-based
[2] = system: Bacillus cereus (ATCC1479); experiment: Antibacterial activity; format: cell-based
AglH = molecular target: T1, AglH (Methanocaldococcus jannaschii, UniProt Q58513); format: biochemical; details: read-out: IC50 AglH; Methanococcus jannaschii enzyme; n = 3
T1 sequence (Q58513 1-301): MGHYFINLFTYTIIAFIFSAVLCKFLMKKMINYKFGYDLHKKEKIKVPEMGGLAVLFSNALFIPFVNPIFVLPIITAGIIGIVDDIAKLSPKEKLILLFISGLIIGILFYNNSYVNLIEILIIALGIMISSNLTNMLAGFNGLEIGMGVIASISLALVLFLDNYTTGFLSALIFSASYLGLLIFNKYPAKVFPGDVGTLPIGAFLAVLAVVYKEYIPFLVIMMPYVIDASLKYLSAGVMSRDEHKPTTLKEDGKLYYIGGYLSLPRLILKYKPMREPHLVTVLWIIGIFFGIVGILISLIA

[3] = system: Mycobacterium smegmatis (ATCC607); experiment: Antibacterial activity; format: cell-based
[4] = molecular target: T2, human dolichyl-phosphate N-acetylglucosaminephosphotransferase 1 (DPAGT1) (Homo sapiens, UniProt Q9H3H5); format: biochemical; details: read-out: IC50 DPAGT1; Human enzyme; n = 3
T2 sequence (Q9H3H5 1-408): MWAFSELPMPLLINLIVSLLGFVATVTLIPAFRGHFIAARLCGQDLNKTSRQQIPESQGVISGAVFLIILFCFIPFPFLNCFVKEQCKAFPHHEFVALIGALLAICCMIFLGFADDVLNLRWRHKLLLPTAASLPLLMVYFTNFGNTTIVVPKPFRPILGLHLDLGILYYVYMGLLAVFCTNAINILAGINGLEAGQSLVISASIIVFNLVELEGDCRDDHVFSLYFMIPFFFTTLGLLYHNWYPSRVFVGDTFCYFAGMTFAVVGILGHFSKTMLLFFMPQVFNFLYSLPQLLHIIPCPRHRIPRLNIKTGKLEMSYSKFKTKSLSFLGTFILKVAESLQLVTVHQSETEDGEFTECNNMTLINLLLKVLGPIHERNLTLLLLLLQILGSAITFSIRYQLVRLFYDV

[5] = system: Mycobacterium tuberculosis (H37Rv); experiment: Antibacterial activity; format: cell-based
[6] = system: healthy (normal) and cancer cell lines; details: read-out: IC50 (rapid cytotoxic activity); within 24 h; ref 4a; cited from earlier work
MraY = details: read-out: IC50 MraY

SMILES | solubility (Water-solubility) | MIC [1] | MIC [2] | IC50 (AglH) | MIC [3] | IC50 [4] | MIC [5] | IC50 [6] | IC50 (MraY)
CC(=O)N[C@H]1[C@@H](O[C@@H]2O[C@H](C[C@@H](O)[C@H]3O[C@@H](n4ccc(=O)[nH]c4=O)[C@H](O)[C@@H]3O)[C@H](O)[C@H](O)[C@H]2NC(=O)/C=C/CCCCCCCCCC(C)C)O[C@H](CO)[C@@H](O)[C@@H]1O [TN-V (1, synthetic), tunicamycin V] | < 0.2 mg/mL | 25.0 µg/mL (≈ 30.1 µM) | 0.4 µg/mL (≈ 0.481 µM) | 13 µM | 6.3 µg/mL (≈ 7.58 µM) | 1500 nM | 6.3 µg/mL (≈ 7.58 µM) | 500 to 2500 nM | 2500 nM
CC(=O)N[C@H]1[C@@H](O[C@@H]2O[C@H](C[C@@H](O)[C@H]3O[C@@H](n4ccc(=O)[nH]c4=O)[C@H](O)[C@@H]3O)[C@H](O)[C@H](O)[C@H]2NC(=O)/C=C/CCCCCCCCCC(C)C)O[C@H](CO)[C@@H](O)[C@@H]1O [TN-V (natural), tunicamycin V, reference compound] |  |  |  | 13.2 µM |  | 1500 nM |  |  | 2900 nM

Source: publication PMC9329268 (Angewandte Chemie (International ed. in English), 2022)
